Data on one substance can be found in patent US8268635B2, “Methods of identifying agents that selectively activate p38 and/or NKkB signaling” (priority 2006, dated 2012).

Where no end group is shown, it is not given here.

For the experiment, the system named is GCKR/GLK. The experiment can be described thus: GCKR/GLK activity in adherent neutrophils. It is filed as cell-based, human. Conditions: plasma-coated dishes; 15 min; TNF 1000 U/ml, TNF70-80 10 μM. As for the experimental part: GCKR was immunoprecipitated from cell lysates and activity assayed using myelin basic protein (MBP) as the substrate. […] Activation of ASK-1 was determined by kinase autophosphorylation.
KHS (hereon referred to as “GCKR”) activity was assayed as described previously using myelin basic protein as a substrate (Shi, C. S., Leonardi, A., Kyriakis, J., Siebenlist, U., and Kerhl, J. H. (1999) J. Immunol. 163: 3279-3285). ASK-1 activation was determined in immunoprecipitates of ASK-1 by autophosphorylation (Kyriakis, J. M., and Auruch, J. (2001) Physiol. Rev. 81: 807-869). p38 and ERK activities were determined as described using myelin basic protein as a substrate (Hii, C. S., Huang, Z. H., Bilney, A., Costabile, M., Murray, A. W., Rathjen, D. A., Der, C. J., and Ferrante, A. (1998) J. Biol. Chem. 273: 19277-19282). […] A solid phase assay using glutathione-S-transferase (GST)-conjugated-jun (1-79) was employed to assay JNK activity (Hii, C. S., Huang, Z. H., Bilney, A., Costabile, M., Murray, A. W., Rathjen, D. A., Der, C. J., and Ferrante, A. (1998) J. Biol. Chem. 273: 19277-19282). Phosphorylated ASK-1, myelin basic protein and GST-jun (1-79) were fractionated on 8, 16 and 12% SDS polyacrylamide gels, respectively, and the bands were detected and radioactivity determined using an Instant Imager (Packard Instruments, Canberra, Australia).

As for PSTHVLITHTI-OH [TNF70-80], the “GCKR/GLK activity in adherent neutrophils” value was “poor at stimulating GCKR/GLK activity”.
